The target in this assay is T1, TRAP1 enzyme (Homo sapiens, UniProt Q12931).
T1 sequence (Q12931 60-704): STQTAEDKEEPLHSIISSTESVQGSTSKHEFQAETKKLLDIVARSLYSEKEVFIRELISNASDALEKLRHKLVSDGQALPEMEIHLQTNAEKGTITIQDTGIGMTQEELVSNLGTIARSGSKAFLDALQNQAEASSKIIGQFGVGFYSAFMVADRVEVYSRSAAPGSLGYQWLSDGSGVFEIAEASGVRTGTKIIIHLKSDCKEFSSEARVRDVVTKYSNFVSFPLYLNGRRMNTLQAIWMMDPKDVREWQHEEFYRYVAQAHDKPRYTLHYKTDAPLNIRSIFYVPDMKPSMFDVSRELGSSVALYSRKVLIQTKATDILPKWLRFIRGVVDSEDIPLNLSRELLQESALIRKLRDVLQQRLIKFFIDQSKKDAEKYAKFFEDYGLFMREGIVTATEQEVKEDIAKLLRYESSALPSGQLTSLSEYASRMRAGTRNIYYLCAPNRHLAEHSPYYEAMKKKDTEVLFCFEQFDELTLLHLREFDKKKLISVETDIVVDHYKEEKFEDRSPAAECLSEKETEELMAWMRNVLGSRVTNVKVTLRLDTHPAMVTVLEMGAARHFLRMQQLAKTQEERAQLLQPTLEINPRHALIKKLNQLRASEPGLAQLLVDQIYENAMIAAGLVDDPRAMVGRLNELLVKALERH
Briefly: ADP Glo assay of TRAP1 ATPase activity. The class given is biochemical. The settings on record: for EC50: TRAP1 ATPase activation, 150 nM Trap1, 20 μM ATP, geometric mean, read-out: ADP GLO DRC: GeoMean EC50; for Emax: read-out: ADP GLO DRC: Mean Emax. The method in brief:
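150 nM TRAP1 preincubated with compound (0.79–100 μM) 30 min at 37° C in Pipes pH 7.5 buffer (0.05 mM MgCl2, 40 mM KCl), then 20 μM ATP added for 60 min at 37° C. ADP quantified by ADP-Glo luminescence against ATP/ADP standard curve. Emax and EC50 from sigmoidal fit.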

This passage reports EC50 and Emax results from patent publication US20230174523A1, “BENZENESULFONAMIDE DERIVATIVES AS TRAP1 MODULATORS AND USES THEREOF” (Amathus Therapeutics, Inc., priority 2020, published 2023).

SMILES strings stand for the structures. Some results are limits rather than exact numbers.

Consider `COc1ccc(NC(=O)c2ccc3c(c2)CCCO3)cc1S(=O)(=O)Nc1c(C)cccc1C` [Compound 1121], for which the EC50 was < 10 µM and the Emax lay in the range of 160 to 199%.

Take `COc1ccc(NC(=O)c2ccoc2C(F)(F)F)cc1S(=O)(=O)Nc1c(C)cccc1C` [Compound 1122]: the EC50 lay within 20 to 100 µM and the Emax was 160 to 199%.

Consider `COc1ccc(NC(=O)c2cccc(N3CCCC3=O)c2)cc1S(=O)(=O)Nc1c(C)cccc1C` [Compound 1123], for which the EC50 was 10 to 20 µM and the Emax lay in the range of 200 to 300%.

Regarding `COc1ccc(NC(=O)c2ccc3c(=O)n(C)cnc3c2)cc1S(=O)(=O)Nc1c(C)cccc1C` [Compound 1124], the half-maximal effective concentration (EC50) lay in the range of 10 to 20 µM and the Emax lay within 200 to 300%.

For the compound `COc1ccc(NC(=O)c2nc3c(C)cccc3s2)cc1S(=O)(=O)Nc1c(C)cccc1C` [Compound 1125], the EC50 is < 10 µM and the Emax lay in the range of 160 to 199%.

`COc1ccc(NC(=O)c2cccc(-n3cncn3)c2)cc1S(=O)(=O)Nc1c(C)cccc1C` [Compound 1126]: the EC50 fell in the range of 10 to 20 µM and the Emax lay within 160 to 199%.

In the case of `COc1ccc(NC(=O)c2ncc(OC(F)F)cc2Cl)cc1S(=O)(=O)Nc1c(C)cccc1C` [Compound 1127], the EC50 lay in the range of 20 to 100 µM and the Emax fell in the range of 123 to 159%.

`COc1ccc(NC(=O)c2scc(C)c2Cl)cc1S(=O)(=O)Nc1c(C)cccc1C` [Compound 1128]: the EC50 was < 10 µM and the Emax lay within 160 to 199%.

Take `COc1ccc(NC(=O)c2ccc(Br)nc2F)cc1S(=O)(=O)Nc1c(C)cccc1C` [Compound 1131]: the EC50 fell in the range of 20 to 100 µM and the Emax was in the range of 123 to 159%.

Take `COc1ccc(NC(=O)c2csc(-c3cccs3)n2)cc1S(=O)(=O)Nc1c(C)cccc1C` [Compound 1136]: the EC50 is < 10 µM and the Emax lay within 160 to 199%.

For the compound `CCc1ncsc1C(=O)Nc1ccc(OC)c(S(=O)(=O)Nc2c(C)cccc2C)c1` [Compound 1137], the EC50 was in the range of 20 to 100 µM and the Emax was 160 to 199%.

In the case of `COc1ccc(NC(=O)c2nc(-c3ccccc3)oc2C)cc1S(=O)(=O)Nc1c(C)cccc1C` [Compound 1139], the EC50 is < 10 µM and the maximum response (Emax) fell in the range of 123 to 159%.

`COc1ccc(NC(=O)c2cc(C#N)ccc2Br)cc1S(=O)(=O)Nc1c(C)cccc1C` [Compound 1141]: the EC50 is 20 to 100 µM and the Emax fell in the range of 160 to 199%.

On to `COc1ccc(NC(=O)c2ccc(-c3ccc(F)cc3)cc2F)cc1S(=O)(=O)Nc1c(C)cccc1C` [Compound 1142], for which the EC50 is < 10 µM and the Emax was 123 to 159%.

`COc1ccc(NC(=O)c2csc3c2CCCC3)cc1S(=O)(=O)Nc1c(C)cccc1C` [Compound 1144]: the EC50 is < 10 µM and the Emax lay in the range of 160 to 199%.

As for `CCOc1c(F)c(F)cc(C(=O)Nc2ccc(OC)c(S(=O)(=O)Nc3c(C)cccc3C)c2)c1F` [Compound 1145], the EC50 is < 10 µM and the maximal effect (Emax) was 123 to 159%.

On to `COc1ccc(NC(=O)c2ccc3c(c2)n(C)c(=O)n3C)cc1S(=O)(=O)Nc1c(C)cccc1C` [Compound 1146], for which the EC50 is < 10 µM and the Emax fell in the range of 200 to 300%.

Regarding `COc1ccc(NC(=O)c2cnn3cccnc23)cc1S(=O)(=O)Nc1c(C)cccc1C` [Compound 1147], the EC50 was in the range of 20 to 100 µM and the Emax was 200 to 300%.

As for `COc1ccc(NC(=O)c2cc(C)n(C(F)F)n2)cc1S(=O)(=O)Nc1c(C)cccc1C` [Compound 1149], the EC50 is 10 to 20 µM and the Emax fell in the range of 123 to 159%.

As for `CCc1ccnc(C(=O)Nc2ccc(OC)c(S(=O)(=O)Nc3c(C)cccc3C)c2)c1` [Compound 1151], the EC50 is < 10 µM and the Emax is 200 to 300%.

In the case of `COc1ccc(NC(=O)c2ccc(-c3ccccn3)s2)cc1S(=O)(=O)Nc1c(C)cccc1C` [Compound 1152], the EC50 is < 10 µM and the Emax fell in the range of 160 to 199%.

`COc1ccc(NC(=O)c2c(C(F)(F)F)ccnc2C)cc1S(=O)(=O)Nc1c(C)cccc1C` [Compound 1153]: the EC50 lay within 20 to 100 µM and the Emax fell in the range of 123 to 159%.

In the case of `COc1ccc(NC(=O)c2cccc(OC3CCOCC3)n2)cc1S(=O)(=O)Nc1c(C)cccc1C` [Compound 1154], the EC50 lay within 20 to 100 µM and the Emax fell in the range of 200 to 300%.

Regarding `COc1ccc(NC(=O)c2sc(-c3cccs3)nc2C)cc1S(=O)(=O)Nc1c(C)cccc1C` [Compound 1156], the EC50 was < 10 µM and the Emax lay in the range of 123 to 159%.

Turning to `COc1ccc(NC(=O)c2cccnc2SCc2ccccc2)cc1S(=O)(=O)Nc1c(C)cccc1C` [Compound 1157], the concentration for a half-maximal effect (EC50) was < 10 µM and the Emax is 123 to 159%.

Consider `COc1ccc(NC(=O)c2cnoc2C2CC2)cc1S(=O)(=O)Nc1c(C)cccc1C` [Compound 1160], for which the EC50 lay within 20 to 100 µM and the Emax was 160 to 199%.

As for `COc1ccc(NC(=O)c2ccc(-c3ccccc3C(F)(F)F)o2)cc1S(=O)(=O)Nc1c(C)cccc1C` [Compound 1162], the EC50 was < 10 µM and the Emax lay in the range of 123 to 159%.

`COc1ccc(NC(=O)c2cc(C)cc(F)c2F)cc1S(=O)(=O)Nc1c(C)cccc1C` [Compound 1164]: the EC50 is < 10 µM and the Emax was in the range of 123 to 159%.

As for `COc1ccc(NC(=O)c2ncccc2C)cc1S(=O)(=O)Nc1c(C)cccc1C` [Compound 1167], the EC50 lay within 10 to 20 µM and the Emax was 123 to 159%.

As to `COc1ccc(NC(=O)c2nc(C(C)C)cs2)cc1S(=O)(=O)Nc1c(C)cccc1C` [Compound 1169], the EC50 is < 10 µM and the Emax was 160 to 199%.

For the compound `COc1ccc(NC(=O)c2cc3ccccc3n2C)cc1S(=O)(=O)Nc1c(C)cccc1C` [Compound 1170], the EC50 was < 10 µM and the Emax fell in the range of 123 to 159%.

Take `COc1ccc(NC(=O)c2nccs2)cc1S(=O)(=O)Nc1c(C)cccc1C` [Compound 1171]: the EC50 was 20 to 100 µM and the Emax was 160 to 199%.

In the case of `CCCN1CCN(c2ccc(C(=O)Nc3ccc(OC)c(S(=O)(=O)Nc4c(C)cccc4C)c3)cc2)CC1` [Compound 1174], the EC50 was < 10 µM and the Emax lay in the range of 160 to 199%.

On to `COc1ccc(NC(=O)c2cnc(C3CC3)o2)cc1S(=O)(=O)Nc1c(C)cccc1C` [Compound 1175], for which the EC50 lay in the range of 20 to 100 µM and the Emax lay within 160 to 199%.

Consider `COc1ccccc1-c1nc(C(=O)Nc2ccc(OC)c(S(=O)(=O)Nc3ccc(Br)cc3)c2)c[nH]1` [Compound 1181], for which the EC50 is < 10 µM and the Emax lay within 160 to 199%.

`C=C(C)c1cc(OC)c(S(=O)(=O)Nc2ccc(C(F)(F)F)cc2)cc1NC(=O)c1ncc(-c2ccccc2)o1` [Compound 1189]: the EC50 was in the range of 20 to 100 µM and the Emax is > 300%.

In the case of `COc1ccc(NC(=O)c2cccc(-c3cnco3)c2)cc1S(=O)(=O)Nc1c(C)cccc1C` [Compound 1218], the EC50 is 10 to 20 µM and the Emax is 160 to 199%.

With `COc1ccc(NC(=O)c2cccc3ncccc23)cc1S(=O)(=O)Nc1c(C)cccc1C` [Compound 1219], the EC50 lay in the range of 20 to 100 µM and the Emax was 160 to 199%.

For `O=C(Nc1ccc(F)c(S(=O)(=O)Nc2ccc(Cl)cc2)c1)c1cccc(-n2cncn2)c1` [Compound 1220], the EC50 was 20 to 100 µM and the Emax was in the range of 123 to 159%.
